The values that follow come from PMC9260081, “Design, Synthesis, and Evaluation of Anticonvulsant Activities of New Triazolopyrimidine Derivatives” (Frontiers in Chemistry, 2022).

Read-outs that look alike come from different tables or passages of the source.

Data set [1] deals with PTZ-induced seizures. The data set is described as follows: Subcutaneous pentylenetetrazole (PTZ) test. The data set is classed as in vivo, mice. The following applies: ip; for minimal effective dose: dosages 30, 100, 300 mg/kg, read-out: PTZ screening, minimum dose whereby bioactivity was demonstrated in half or more of the mice. The method, then:
(§1) Male Kunming mice with weights from 18 to 22 g were used in all the pharmacological experiments. The mice were housed in the standard cages with 10 each, where a controlled temperature (25°C ± 2°C) with a 12 h light/dark cycle was maintained. All animals had free access to food and water. All experiments and procedures involving animals were carried out according to the Guide for the Care and Use of Laboratory Animals (National Academies Press, Washington, D.C., United States). Approval from the local medical ethical committee was obtained before the experiment.
In the PTZ test, mice were subcutaneously administered with PTZ at the dose of 85 mg/kg. At this dose, mice can be elicited a threshold seizure characterized by an episode of clonic spasms and tonic spasms. After being treated with test compounds at doses of 300, 100, and 30 mg/kg, the mice were considered protected if a single episode of clonic spasms of more than 5 s duration was not obtained. The quantitative anticonvulsant activity (ED50) in the PTZ model was determined and calculated with the same method described in the MES test.

For data set [2], the system named is ability to maintain equilibrium on rotating rod. The experiment in a line: Neurotoxicity screening (rotarod test). The format is in vivo. Conditions: i.p.; for NT screening (rotarod), minimum neurotoxic dose in half or more of the mice: dosages 30, 100, 300 mg/kg. The method, then: as §1
The rotarod test was used to evaluate the neurotoxicity of the synthesized compounds. Before the formal experiments, mice were trained to climb on a rotating rod of diameter 3.2 cm with the rotation speed of 10 rpm. Test compounds in the three doses were intraperitoneally injected into the trained mice. […] The rough neurotoxic dose was obtained in which mice cannot maintain equilibrium on the rod for at least 1 min. The quantitative neurotoxic dose (TD50) of the test compounds was measured and calculated with the same method described in the MES test.
On the technique in general: The rotarod test checks motor coordination on a turning rod.

Data set [3] concerns MES-induced seizures. The data set is described as follows: Maximal electroshock seizure (MES) test. Conditions: for minimal effective dose: dosages 30, 100, 300 mg/kg, read-out: MES screening, minimum dose whereby bioactivity was demonstrated in half or more of the mice. The data set is classed as in vivo, mice. Here is the method:
as §1
In the MES test, mice were subjected to ear stimulation using a 0.2 s 60-Hz 50-mA alternating current to elicit seizures. Tonic hind limb extension was considered as the seizure occurring, and the vanishing of tonic hind limb extension indicates the protection against the MES-induced seizures. Mice were injected intraperitoneally with test compounds at doses of 300, 100, and 30 mg/kg to evaluate their general anticonvulsant activity. Half and 4 h intervals were chosen to test the anti-MES activity. […] A series of doses of the tested compounds were injected into the mice with 10 in one group.
In general terms: The maximal electroshock test induces tonic seizures with an electrical stimulus.

[4] abbreviates: Mus musculus, mice, 0.5 h after injection.
Where [5] appears, read: Mus musculus, mice, 4 h after injection.
Setting [6] is: Mus musculus, ip, mice, 0.5 h after injection.
Where [7] appears, read: Mus musculus, ip, mice, 4 h after injection.

For `Clc1ccccc1-c1ccnc2ccnn12` [Compound 4c, 7-(2-Chlorophenyl)pyrazolo[1,5-a]pyrimidine], the minimal effective dose in data set [1] (setting [4]), in data set [1] (setting [5]), in data set [3] (setting [6]) and in data set [3] (setting [7]) was more than 300 mg/kg in each case. In addition, the “NT screening (rotarod), minimum neurotoxic dose in half or more of the mice” value (from here on “NT screening (rotarod)”) is “— (A dash indicates the absence of anticonvulsant activity and neurotoxicity at the maximum dose administered (300 mg/kg))” in data set [2] (0.5 h after injection); “— (A dash indicates the absence of anticonvulsant activity and neurotoxicity at the maximum dose administered (300 mg/kg))” in data set [2] (4 h after injection).
As to `COc1ccc(-c2ccnc3ncnn23)cc1` [Compound 3i, 7-(4-Methoxyphenyl)-[1,2,4]triazolo[1,5-a]pyrimidine], the minimal effective dose is 100 mg/kg in data set [1] (setting [4]), more than 300 mg/kg in data set [1] (setting [5]), 300 mg/kg in data set [3] (setting [6]) and more than 300 mg/kg in data set [3] (setting [7]). The “NT screening (rotarod)” value is “— (A dash indicates the absence of anticonvulsant activity and neurotoxicity at the maximum dose administered (300 mg/kg))” in data set [2] (0.5 h after injection); “— (A dash indicates the absence of anticonvulsant activity and neurotoxicity at the maximum dose administered (300 mg/kg))” in data set [2] (4 h after injection).
Take `Fc1ccc(-c2ccnc3ccnn23)cc1` [Compound 4b, 7-(4-Fluorophenyl)pyrazolo[1,5-a]pyrimidine]: the minimal effective dose in data set [1] (setting [4]), in data set [1] (setting [5]), in data set [3] (setting [6]) and in data set [3] (setting [7]) was more than 300 mg/kg throughout. Also, the “NT screening (rotarod)” value in data set [2] (0.5 h after injection) is “— (A dash indicates the absence of anticonvulsant activity and neurotoxicity at the maximum dose administered (300 mg/kg))”; in data set [2] (4 h after injection), “— (A dash indicates the absence of anticonvulsant activity and neurotoxicity at the maximum dose administered (300 mg/kg))”.
Take `O=[N+]([O-])c1ccc(-c2ccnc3ccnn23)cc1` [Compound 4g, 7-(4-Nitrophenyl)pyrazolo[1,5-a]pyrimidine]: the minimal effective dose in data set [1] (setting [4]), in data set [1] (setting [5]), in data set [3] (setting [6]) and in data set [3] (setting [7]) was more than 300 mg/kg in each case. Besides, the “NT screening (rotarod)” value in data set [2] (0.5 h after injection) is “— (A dash indicates the absence of anticonvulsant activity and neurotoxicity at the maximum dose administered (300 mg/kg))”; in data set [2] (4 h after injection), “— (A dash indicates the absence of anticonvulsant activity and neurotoxicity at the maximum dose administered (300 mg/kg))”.
On to `c1ccc(-c2ccnc3ccnn23)cc1` [Compound 4a, 7-Phenylpyrazolo[1,5-a]pyrimidine], for which the minimal effective dose in data set [1] (setting [4]), in data set [1] (setting [5]), in data set [3] (setting [6]) and in data set [3] (setting [7]) was more than 300 mg/kg throughout. The “NT screening (rotarod)” value in data set [2] (0.5 h after injection) is “— (A dash indicates the absence of anticonvulsant activity and neurotoxicity at the maximum dose administered (300 mg/kg))”; in data set [2] (4 h after injection), “— (A dash indicates the absence of anticonvulsant activity and neurotoxicity at the maximum dose administered (300 mg/kg))”.
Regarding `Fc1ccc(-c2ccnc3ncnn23)cc1` [Compound 3b, 7-(4-Fluorophenyl)-[1,2,4]triazolo[1,5-a]pyrimidine], the minimal effective dose in data set [1] (setting [4]) is 300 mg/kg; in data set [1] (setting [5]), more than 300 mg/kg; in data set [3] (setting [6]) it was 300 mg/kg; in data set [3] (setting [7]), more than 300 mg/kg. For the same compound, the “NT screening (rotarod)” value in data set [2] (0.5 h after injection) is “— (A dash indicates the absence of anticonvulsant activity and neurotoxicity at the maximum dose administered (300 mg/kg))”; in data set [2] (4 h after injection), “— (A dash indicates the absence of anticonvulsant activity and neurotoxicity at the maximum dose administered (300 mg/kg))”.
As to `COc1ccc(-c2ccnc3ccnn23)cc1` [Compound 4i, 7-(4-Methoxyphenyl)pyrazolo[1,5-a]pyrimidine], the minimal effective dose is 300 mg/kg in data set [1] (setting [4]), more than 300 mg/kg in data set [1] (setting [5]), more than 300 mg/kg in data set [3] (setting [6]) and more than 300 mg/kg in data set [3] (setting [7]). The “NT screening (rotarod)” value in data set [2] (0.5 h after injection) was “— (A dash indicates the absence of anticonvulsant activity and neurotoxicity at the maximum dose administered (300 mg/kg))”; in data set [2] (4 h after injection), “— (A dash indicates the absence of anticonvulsant activity and neurotoxicity at the maximum dose administered (300 mg/kg))”.
For `Clc1ccc(-c2ccnc3ncnn23)c(Cl)c1` [Compound 3e, 7-(2,4-Dichlorophenyl)-[1,2,4]triazolo[1,5-a]pyrimidine], the minimal effective dose was 100 mg/kg in data set [1] (setting [4]), more than 300 mg/kg in data set [1] (setting [5]), 100 mg/kg in data set [3] (setting [6]) and more than 300 mg/kg in data set [3] (setting [7]). The “NT screening (rotarod)” value in data set [2] (0.5 h after injection) is “— (A dash indicates the absence of anticonvulsant activity and neurotoxicity at the maximum dose administered (300 mg/kg))”; in data set [2] (4 h after injection) it was “— (A dash indicates the absence of anticonvulsant activity and neurotoxicity at the maximum dose administered (300 mg/kg))”.
For orientation: ED50 means the midpoint of the dose-response relation. `CCCC(CCC)C(=O)O` [Valproate, reference compound]: the ED50 amounted to 149 mg/kg in data set [1] (Mus musculus, mice, 95% confidence interval in brackets, read-out: ED50 scPTZ) and 264 mg/kg in data set [3] (Mus musculus, ip, mice, 95% confidence interval in brackets, read-out: ED50 MES). Besides, the “PI scPTZ, protective index (TD50/ED50)” value in data set [1] (male, Kunming, mouse, in vivo) was determined as 2.8. Also, the TD50 in data set [2] (rotarod, mice, 95% confidence interval in brackets) is reported as 418 (369–450) mg/kg. The “PI MES, protective index (TD50/ED50)” value in data set [3] (TD50 rotarod / ED50 MES, mice i.p.) amounted to 1.6.
Take `Brc1ccc(-c2ccnc3ncnn23)cc1` [Compound 3f, 7-(4-Bromophenyl)-[1,2,4]triazolo[1,5-a]pyrimidine]: the minimal effective dose in data set [1] (setting [4]), in data set [1] (setting [5]), in data set [3] (setting [6]) and in data set [3] (setting [7]) was more than 300 mg/kg in each case. For the same compound, the “NT screening (rotarod)” value in data set [2] (0.5 h after injection) was “— (A dash indicates the absence of anticonvulsant activity and neurotoxicity at the maximum dose administered (300 mg/kg))”; in data set [2] (4 h after injection), “— (A dash indicates the absence of anticonvulsant activity and neurotoxicity at the maximum dose administered (300 mg/kg))”.
Turning to `Clc1ccc(-c2ccnc3ncnn23)cc1` [Compound 3d, 7-(4-Chlorophenyl)-[1,2,4]triazolo[1,5-a]pyrimidine], the minimal effective dose in data set [1] (setting [4]), in data set [1] (setting [5]), in data set [3] (setting [6]) and in data set [3] (setting [7]) was more than 300 mg/kg each time. Besides, the “NT screening (rotarod)” value was “— (A dash indicates the absence of anticonvulsant activity and neurotoxicity at the maximum dose administered (300 mg/kg))” in data set [2] (0.5 h after injection); “— (A dash indicates the absence of anticonvulsant activity and neurotoxicity at the maximum dose administered (300 mg/kg))” in data set [2] (4 h after injection).
For `Clc1ccc(-c2ccnc3ccnn23)c(Cl)c1` [Compound 4e, 7-(2,4-Dichlorophenyl)pyrazolo[1,5-a]pyrimidine], the minimal effective dose in data set [1] (setting [4]) was 300 mg/kg; in data set [1] (setting [5]), more than 300 mg/kg; in data set [3] (setting [6]), more than 300 mg/kg; in data set [3] (setting [7]), more than 300 mg/kg. Besides, the “NT screening (rotarod)” value in data set [2] (0.5 h after injection) was “— (A dash indicates the absence of anticonvulsant activity and neurotoxicity at the maximum dose administered (300 mg/kg))”; in data set [2] (4 h after injection) it was “— (A dash indicates the absence of anticonvulsant activity and neurotoxicity at the maximum dose administered (300 mg/kg))”.
